Data on twelve compounds can be found in patent US8895587B2, “Insecticidal compounds based on arylthioacetamide derivatives” (Syngenta Participations AG, priority 2011, dated 2014).

Assay type in all cases: in vivo
In assay [1] the test system is Heliothis virescens. The assay can be described thus: Heliothis virescens (tobacco budworm) egg/larval test on artificial diet. The note with it: 96 h.
Assay [2] concerns Plutella xylostella. The assay can be described thus: Plutella xylostella (diamond back moth) larval test on artificial diet. The note with it: 144 h.
In assay [3] the test system is Diabrotica balteata. Put plainly: Diabrotica balteata (corn root worm) larval test on artificial diet. The note with it: 120 h, read-out: Control/% Diabrotica balteata Corn rootworm.
Assay [4] has as its system Plutella xylostella. Put plainly: Plutella xylostella (diamond back moth) larval test on artificial diet. The conditions noted are these: 144 h, application rate 200 ppm (concentration in well 18 ppm), L2 larvae on artificial diet, 6 days. The method, then: 24-well microtiter plate (MTP) with artificial diet was treated with test solutions at an application rate of 200 ppm (concentration in well 18 ppm) by pipetting. After drying, the MTP's were infested with L2 larvae (7-12 per well). After an incubation period of 6 days, samples were checked for larval mortality and growth regulation.

The subject of assay [5] is Heliothis virescens. The assay can be described thus: Heliothis virescens (tobacco budworm) egg/larval test on artificial diet. The conditions noted are these: 96 h, application rate 200 ppm (concentration in well 18 ppm), eggs on artificial diet, 4 days. The method, then:
Eggs (0-24 h old) were placed in 24-well microtiter plate on artificial diet and treated with test solutions at an application rate of 200 ppm (concentration in well 18 ppm) by pipetting. After an incubation period of 4 days, samples were checked for egg mortality, larval mortality, and growth regulation.

In a further assay the test system is Thrips tabaci. Put plainly: Thrips tabaci (onion thrips) leaf disc test. The note with it: foliar, 168 h, application rate 200 ppm, sunflower leaf discs, 7 days. How it is done: Sunflower leaf discs were placed on agar in a 24-well microtiter plate and sprayed with test solutions at an application rate of 200 ppm. After drying, the leaf discs were infested with a thrips population of mixed ages. After an incubation period of 7 days, samples were checked for mortality.

For another assay, the system named is Spodoptera littoralis. The assay can be described thus: Spodoptera littoralis (Egyptian cotton leafworm) leaf disc test. The note with it: foliar, 72 h, application rate 200 ppm, cotton leaf discs, L1 larvae, mortality, feeding behavior, growth regulation 3 DAT. The source says: Spodoptera littoralis (Egyptian Cotton Leafworm): Cotton leaf discs were placed on agar in a 24-well microtiter plate and sprayed with test solutions at an application rate of 200 ppm. After drying, the leaf discs were infested with 5 L1 larvae. The samples were checked for mortality, feeding behavior, and growth regulation 3 days after treatment (DAT).

In the next assay the test system is Tetranychus urticae. Put plainly: Tetranychus urticae (two-spotted spider mite) leaf disc test. The conditions noted are these: foliar, 192 h, application rate 200 ppm, bean leaf discs, 8 days. The source says:
Bean leaf discs on agar in 24-well microtiter plates were sprayed with test solutions at an application rate of 200 ppm. After drying, the leaf discs are infested with mite populations of mixed ages. 8 days later, discs are checked for egg mortality, larval mortality, and adult mortality.

A further assay has as its system Myzus persicae. The assay can be described thus: Myzus persicae (green peach aphid), systemic test. The conditions noted are these: 144 h, application rate 12.5 ppm, roots of pea seedlings in test solution, 6 days. The source says:
Myzus persicae (Green peach aphid), systemic test: Roots of pea seedlings, infested with an aphid population of mixed ages, are placed directly in the test solutions at an application rate of 12.5 ppm. 6 days after introduction, samples are checked for mortality and special effects on the plant. The following compounds gave at least 80% control of Myzus persicae: […]

The test system of assay [6] is Diabrotica balteata. The assay can be described thus: Diabrotica balteata (corn root worm) larval test on artificial diet. The conditions noted are these: 120 h, application rate 200 ppm (concentration in well 18 ppm), L2 larvae on artificial diet, 5 days. How it is done:
Diabrotica balteata (Corn Root Worm): A 24-well microtiter plate (MTP) with artificial diet was treated with test solutions at an application rate of 200 ppm (concentration in well 18 ppm) by pipetting. After drying, the MTP's were infested with L2 larvae (6-10 per well). After an incubation period of 5 days, samples were checked for larval mortality and growth regulation.

Consider `Cc1cc(C2=NOC(c3cc(Cl)cc(Cl)c3)(C(F)(F)F)C2)ccc1[S+](C)[O-]` (centres unmarked), for which the pest or weed control at 0.8 ppm in the assay on Heliothis virescens [1] (application rate 0.8 ppm) and with Plutella xylostella [2] (application rate 0.8 ppm) was 0% throughout. The pest or weed control at 3 ppm in the assay with Heliothis virescens [1] (application rate 3 ppm), with Plutella xylostella [2] (application rate 3 ppm) and in the assay on Diabrotica balteata [3] (application rate 3 ppm) was 0% in each case. Besides, the pest or weed control at 12 ppm in the assay with Diabrotica balteata [3] (application rate 12 ppm) came out at 0%.
On to `O=C(CSc1ccc(C2=NCC(c3cc(Cl)cc(Cl)c3)(C(F)(F)F)C2)cc1Cl)NCC(F)(F)F` (centres unmarked) [Compound B1, 2-{2-Chloro-4-[4-(3,5-dichloro-phenyl)-4-trifluoromethyl-4,5-dihydro-3H-pyrrol-2-yl]-phenylsulfanyl}-N-(2,2,2-trifluoro-ethyl)-acetamide], for which the pest or weed control at 200 ppm in the assay with Plutella xylostella [4], in the assay on Heliothis virescens [5], in the assay with Thrips tabaci, with Spodoptera littoralis, with Tetranychus urticae and in the assay with Diabrotica balteata [6] was not below 80% each time. The same compound displayed a pest or weed control at 12.5 ppm with Myzus persicae not below 80%.
Turning to `O=C(C[S+]([O-])c1ccc(C2=NCC(c3cc(Cl)cc(Cl)c3)(C(F)(F)F)C2)cc1Cl)NCC(F)(F)F` (centres unmarked) [Compound B2, 2-{2-Chloro-4-[4-(3,5-dichloro-phenyl)-4-trifluoromethyl-4,5-dihydro-3H-pyrrol-2-yl]-benzenesulfinyl}-N-(2,2,2-trifluoro-ethyl)-acetamide], the pest or weed control at 200 ppm in the assay with Plutella xylostella [4], with Heliothis virescens [5], in the assay with Thrips tabaci, in the assay on Spodoptera littoralis, in the assay on Tetranychus urticae and in the assay on Diabrotica balteata [6] was not below 80% each time. The compound also registered a pest or weed control at 12.5 ppm with Myzus persicae not below 80%.
Consider `O=C(CS(=O)(=O)c1ccc(C2=NCC(c3cc(Cl)cc(Cl)c3)(C(F)(F)F)C2)cc1Cl)NCC(F)(F)F` (centres unmarked) [Compound B3, 2-{2-chloro-4-[4-(3,5-Dichloro-phenyl)-4-trifluoromethyl-4,5-dihydro-3H-pyrrol-2-yl]-benzenesulfonyl}-N-(2,2,2-trifluoro-ethyl)-acetamide], for which the pest or weed control at 200 ppm in the assay with Plutella xylostella [4], in the assay with Heliothis virescens [5], in the assay with Thrips tabaci, in the assay with Spodoptera littoralis, in the assay on Tetranychus urticae and in the assay on Diabrotica balteata [6] was not below 80% throughout. The pest or weed control at 12.5 ppm in the assay with Myzus persicae was not below 80%.
As for `O=C(CSc1ccc(C2=NO[C@@](c3cc(Cl)cc(Cl)c3)(C(F)(F)F)C2)cc1F)NCC(F)(F)F` [Compound C63, 2-[4-[(5S)-5-(3,5-dichlorophenyl)-5-(trifluoromethyl)-4H-isoxazol-3-yl]-2-fluoro-phenyl]sulfanyl-N-(2,2,2-trifluoroethyl)acetamide], the pest or weed control at 200 ppm with Plutella xylostella [4], with Heliothis virescens [5], with Thrips tabaci, in the assay on Spodoptera littoralis, in the assay on Tetranychus urticae and with Diabrotica balteata [6] was not below 80% each time. Also, in the assay with Myzus persicae, the pest or weed control at 12.5 ppm was not below 80%.
In the case of `O=C(C[S+]([O-])c1ccc(C2=NO[C@@](c3cc(Cl)cc(Cl)c3)(C(F)(F)F)C2)cc1F)NCC(F)(F)F` (stereo partly drawn) [Compound C64, 2-[4-[(5S)-5-(3,5-dichlorophenyl)-5-(trifluoromethyl)-4H-isoxazol-3-yl]-2-fluoro-phenyl]sulfinyl-N-(2,2,2-trifluoroethyl)acetamide], the pest or weed control at 200 ppm in the assay on Plutella xylostella [4], in the assay on Heliothis virescens [5], with Thrips tabaci, in the assay with Spodoptera littoralis, with Tetranychus urticae and in the assay with Diabrotica balteata [6] was not below 80% each time. Also, in the assay with Myzus persicae, the pest or weed control at 12.5 ppm is not below 80%.
Take `O=C(CSc1ccc(C2=NO[C@@](c3cc(Cl)c(Cl)c(Cl)c3)(C(F)(F)F)C2)cc1Cl)NCC(F)(F)F` [Compound D1, 2-[2-chloro-4-[(5S)-5-(3,4,5-trichlorophenyl)-5-(trifluoromethyl)-4H-isoxazol-3-yl]phenyl]sulfanyl-N-(2,2,2-trifluoroethyl)acetamide]: the pest or weed control at 200 ppm in the assay on Plutella xylostella [4], in the assay with Heliothis virescens [5], with Thrips tabaci, with Spodoptera littoralis, with Tetranychus urticae and in the assay with Diabrotica balteata [6] was not below 80% in each case. This compound gave a pest or weed control at 12.5 ppm in the assay on Myzus persicae not below 80%.
As for `O=C(C[S+]([O-])c1ccc(C2=NO[C@@](c3cc(Cl)c(Cl)c(Cl)c3)(C(F)(F)F)C2)cc1Cl)NCC(F)(F)F` (stereo partly drawn) [Compound D2, 2-[2-chloro-4-[(5S)-5-(3,4,5-trichlorophenyl)-5-(trifluoromethyl)-4H-isoxazol-3-yl]phenyl]sulfinyl-N-(2,2,2-trifluoroethyl)acetamide], the pest or weed control at 200 ppm in the assay on Plutella xylostella [4], in the assay with Heliothis virescens [5], with Thrips tabaci, with Spodoptera littoralis, in the assay on Tetranychus urticae and in the assay on Diabrotica balteata [6] was not below 80% each time. The pest or weed control at 12.5 ppm in the assay on Myzus persicae was not below 80%.
Take `O=C(CS(=O)(=O)c1ccc(C2=NO[C@@](c3cc(Cl)c(Cl)c(Cl)c3)(C(F)(F)F)C2)cc1Cl)NCC(F)(F)F` [Compound D3, 2-[2-chloro-4-[(5S)-5-(3,4,5-trichlorophenyl)-5-(trifluoromethyl)-4H-isoxazol-3-yl]phenyl]sulfonyl-N-(2,2,2-trifluoroethyl)acetamide]: the pest or weed control at 200 ppm in the assay on Plutella xylostella [4], in the assay with Heliothis virescens [5], with Thrips tabaci, with Spodoptera littoralis, in the assay with Tetranychus urticae and in the assay with Diabrotica balteata [6] was not below 80% in each case. Moreover, the pest or weed control at 12.5 ppm in the assay on Myzus persicae was not below 80%.
In the case of `O=C(CSc1ccc(C2=NO[C@@](c3cc(Cl)c(Cl)c(Cl)c3)(C(F)(F)F)C2)cc1Cl)NC1CC1` [Compound D4, 2-[2-chloro-4-[(5S)-5-(3,4,5-trichlorophenyl)-5-(trifluoromethyl)-4H-isoxazol-3-yl]phenyl]sulfanyl-N-cyclopropyl-acetamide], the pest or weed control at 200 ppm with Plutella xylostella [4], in the assay on Heliothis virescens [5], in the assay on Thrips tabaci, in the assay on Spodoptera littoralis, with Tetranychus urticae and in the assay with Diabrotica balteata [6] was not below 80% in each case. In addition, the pest or weed control at 12.5 ppm with Myzus persicae was not below 80%.
Regarding `O=C(CSc1ccc(C2=NOC(c3cc(Cl)cc(Cl)c3)(C(F)(F)F)C2)c2ccccc12)NCC(F)(F)F` (centres unmarked) [Compound G1, 2-[[4-[5-(3,5-dichlorophenyl)-5-(trifluoromethyl)-4H-isoxazol-3-yl]-1-naphthyl]sulfanyl]-N-(2,2,2-trifluoroethyl)acetamide], the pest or weed control at 200 ppm with Plutella xylostella [4], with Heliothis virescens [5], in the assay with Thrips tabaci, in the assay on Spodoptera littoralis, in the assay with Tetranychus urticae and with Diabrotica balteata [6] was not below 80% each time. The pest or weed control at 12.5 ppm with Myzus persicae was not below 80%.
`O=C(CSc1ccc(C2=NO[C@@](c3cc(Cl)cc(Cl)c3)(C(F)(F)F)C2)c2ccccc12)NCC(F)(F)F` [Compound G2, 2-[[4-[5-(S)-(3,5-dichlorophenyl)-5-(trifluoromethyl)-4H-isoxazol-3-yl]-1-naphthyl]sulfanyl]-N-(2,2,2-trifluoroethyl)acetamide]: the pest or weed control at 200 ppm in the assay with Plutella xylostella [4], with Heliothis virescens [5], in the assay on Thrips tabaci, in the assay on Spodoptera littoralis, with Tetranychus urticae and in the assay with Diabrotica balteata [6] was not below 80% in each case. Further, in the assay with Myzus persicae, the pest or weed control at 12.5 ppm is not below 80%.
